These results are taken from US20260209215A1, “GLYCINE DERIVATIVES WITH P2X4 RECEPTOR-BLOCKING ACTIVITY AS DIAGNOSTICS AND FOR THE TREATMENT OF PAIN, INFLAMMATION, CANCER, AND OTHER P2X4 RECEPTOR-RELATED DISEASES” (RHEINISCHE-FRIEDRICH-WILHELMS-UNIVERSITÄT BONN, priority 2022, published 2026).

In this experiment the target is T1, P2X4 receptor (Homo sapiens, UniProt Q99571).
T1 construct: expressed in transfected cells; host or cells: 1321N1 astrocytoma cells, retroviral vector pQCXIN, G418 selection, monoclones
T1 sequence (Q99571 1-388): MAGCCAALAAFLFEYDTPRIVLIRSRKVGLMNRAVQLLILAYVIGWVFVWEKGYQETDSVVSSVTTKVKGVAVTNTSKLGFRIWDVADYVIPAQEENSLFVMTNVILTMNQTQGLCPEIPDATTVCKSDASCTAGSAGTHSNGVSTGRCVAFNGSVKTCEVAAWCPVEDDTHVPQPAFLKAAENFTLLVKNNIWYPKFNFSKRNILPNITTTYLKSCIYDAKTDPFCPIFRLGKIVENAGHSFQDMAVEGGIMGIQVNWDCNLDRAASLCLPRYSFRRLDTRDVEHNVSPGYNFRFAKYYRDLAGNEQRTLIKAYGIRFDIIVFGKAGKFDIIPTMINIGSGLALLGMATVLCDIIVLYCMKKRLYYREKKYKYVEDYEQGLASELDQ
The experiment can be described thus: Measurement of Ca2+ influx in transfected 1321N1 astrocytoma cells (P2X4 inhibitory potency). In kind it is cell-based. Particulars: agonist-mediated Ca2+ influx, FLUO-4, 1321N1 astrocytoma cells; antagonists added 30 min before agonist. The source says:
The rat, mouse, and human P2X4 DNA, respectively, were cloned into the retroviral vector pQCXIN. 1321N1 Astrocytoma cells were transfected with the DNA using a retroviral system as described previously. In brief, GP+envAM12 packaging cells were first transiently co-transfected with a retroviral vector to generate the retrovirus and with a vesicular stomatitis virus G protein (VSV-G) to pseudotype the virus and to increase their infection efficiency. The viruses containing the rat, mouse or human P2X4 receptor sequence were then used to create a stable astrocytoma cell line. P2X4 receptor-expressing cells were selected with G418 ([…]).
The selection of monoclones for rat and human P2X4 receptors was performed using the limited dilution method by plating the cells at very low cell densities (1 cell clone per well in 96-well plates). Cells were counted, and then several dilutions were made to obtain a concentration of […]. We subsequently added 100 µL of the diluted cell suspension into each well expecting to obtain on average 1 cell per well. After a few days the wells that contained single clones were labeled and transferred into 24 well plates. More than 20 clones were selected for each cell line and characterized in calcium influx assay.
Measurement of Ca^2+ influx in transfected 1321N1 astrocytoma cells
P2X receptor function was determined on the basis of agonist-mediated increases in cytosolic Ca^2+ concentration. The fluorescent Ca^2+chelating dye FLUO-4 was used as an indicator of the relative levels of intracellular Ca^2+ in a 96-well format using a fluorescence imaging plate reader (Novostar, BMG, Germany). Cells were grown to confluence in 96-well black-walled tissue culture plates and loaded with FLUO-4 AM ([…]) in Hank's balanced salt solution (HBSS, containing 10 mM HEPES, pH 7.3, and 1% Pluronic® F127) for 1 h at 23° C. After incubation, the loaded cells were washed with the same buffer to remove extracellular FLUO-4 AM. Compound solutions were prepared in HBSS (containing 20 mM HEPES, pH 7.3) or DMSO depending on their solubility. […] Fluorescence intensity was measured at 520 nm for 30 s at 0.4 s intervals. Buffer or test compounds were injected sequentially into separate wells using the automatic pipetting device. At least three independent experiments were performed in triplicate or duplicate. Antagonists were added 30 min before the addition of agonists. The assays were performed in a final volume of 200 μL. Compounds were tested at 7-8 different concentrations spanning three orders of magnitude of concentrations. Statistical significances were calculated using the unpaired two-tailed t-test.

`Cc1nsc(-c2ccc(C)c(NCC(=O)N3CCc4c(OCC(C)(C)O)cccc43)c2)n1` [Example 12, 1-(4-(2-hydroxy-2-methylpropoxy)indolin-1-yl)-2-((2-methyl-5-(3-methyl-1,2,4-thiadiazol-5-yl)phenyl)amino)]: the IC50 lay in the range of 0.0001 to 0.019 µM. The value for `Cc1nsc(-c2ccc(C)c(NCC(=O)N3CCc4c3cccc4N3C(=O)CCS3(=O)=O)c2)n1` [Example 13, 2-(1-((2-methyl-5-(3-methyl-1,2,4-thiadiazol-5-yl)phenyl)glycyl)indolin-4-yl) isothiazolidin-3-one 1,1-dioxide] was 0.0001 to 0.019 µM; that for `Cc1ccc(-c2nc(Br)ns2)cc1NCC(=O)N1CCc2c(OCC(C)(C)O)cccc21` [Example 14] was 0.0001 to 0.019 µM. The value for `C#Cc1nsc(-c2ccc(C)c(NCC(=O)N3CCc4c(OC)cccc43)c2)n1` [Example 15, 2-((5-(3-ethynyl-1,2,4-thiadiazol-5-yl)-2-methylphenyl)amino)-1-(4-methoxyindolin-1-yl)ethan-1-one] was 0.0001 to 0.019 µM; that for `Cc1nsc(-c2ccc(C)c(NCC(=O)N3CCc4c(OCCCO)cccc43)c2)n1` [Example 16, 1-(4-(3-hydroxypropoxy)indolin-1-yl)-2-((2-methyl-5-(3-methyl-1,2,4-thiadiazol-5-yl)phenyl)amino) ethan-1-one] was 0.0001 to 0.019 µM; that for `Cc1nsc(-c2ccc(C)c(NCC(=O)N3CCc4c3cccc4N3C(=O)CCC3=O)c2)n1` [Example 17, 1-(1-((2-methyl-5-(3-methyl-1,2,4-thiadiazol-5-yl)phenyl)glycyl)indolin-4-yl) pyrrolidine-2,5-dione] was 0.0001 to 0.019 µM. As for `C=Cc1nsc(-c2ccc(C)c(NCC(=O)N3CCc4c(OCCOCCO)cccc43)c2)n1` [Example 18, 1-(4-(2-(2-hydroxyethoxy)ethoxy)indolin-1-yl)-2-((2-methyl-5-(3-vinyl-1,2,4-thiadiazol-5-yl)phenyl)amino) ethan-1-one], the IC50 is 0.0001 to 0.019 µM. Take `CCc1nsc(-c2ccc(C)c(NCC(=O)N3CCc4c(OCCOCCO)cccc43)c2)n1` [Example 19, 2-((5-(3-ethyl-1,2,4-thiadiazol-5-yl)-2-methylphenyl)amino)-1-(4-(2-(2-hydroxyethoxy)ethoxy)indolin-1-yl)ethan-1-one]: the IC50 was in the range of 0.0001 to 0.019 µM. With `CCc1nsc(-c2ccc(C)c(NCC(=O)N3CCc4c(NS(C)(=O)=O)cccc43)c2)n1` [Example 20, N-(1-((5-(3-ethyl-1,2,4-thiadiazol-5-yl)-2-methylphenyl)glycyl)indolin-4-yl) methanesulfonamide] the figure was 0.0001 to 0.019 µM. The value for `CCc1nsc(-c2ccc(F)c(NCC(=O)N3CCc4c(C(C)O)cccc43)c2)n1` (stereo not drawn) [Example 21, 2-((5-(3-ethyl-1,2,4-thiadiazol-5-yl)-2-fluorophenyl)amino)-1-(4-(1-hydroxyethyl)indolin-1-yl)ethan-1-one] was 0.0001 to 0.019 µM. With `Cc1nsc(-c2ccc(C)c(NCC(=O)N3CCc4c3cccc4C(C)(C)O)c2)n1` [Example 22, 1-(4-(2-hydroxypropan-2-yl)indolin-1-yl)-2-((2-methyl-5-(3-methyl-1,2,4-thiadiazol-5-yl)phenyl)amino)ethan-1-one] the figure was 0.0001 to 0.019 µM. The compound `Cc1nsc(-c2ccc(C)c(NCC(=O)N3CCc4c(N5CCC6(CC5)COC6)cccc43)c2)n1` [Example 23, 1-(4-(2-oxa-7-azaspiro[3.5]nonan-7-yl)indolin-1-yl)-2-((2-methyl-5-(3-methyl-1,2,4-thiadiazol-5-yl)phenyl)-amino)ethan-1-one] gave an IC50 of 0.0001 to 0.019 µM. With `Cc1nsc(-c2ccc(N3CCCC3)c(NCC(=O)N3CCc4c(OCC(C)(C)O)cccc43)c2)n1` [Example 24, 1-(4-(2-hydroxy-2-methylpropoxy)indolin-1-yl)-2-((5-(3-methyl-1,2,4-thiadiazol-5-yl)-2-(pyrrolidin-1-yl)phenyl)-amino)ethan-1-one] the figure was 0.0001 to 0.019 µM; with `Cc1noc(-c2ccc(C)c(NCC(=O)N3CCc4c(N5CCC(O)C5)cccc43)c2)n1` (stereo not drawn) [Example 25, 1-(4-(3-hydroxy-pyrrolidin-1-yl)indolin-1-yl)-2-((2-methyl-5-(3-methyl-1,2,4-oxadiazol-5-yl)phenyl)amino)ethan-1-one], 0.0001 to 0.019 µM. Take `CCc1nsc(-c2ccc(C)c(NCC(=O)N3CCc4c3cccc4S(=O)(=O)NC)c2)n1` [Example 26, 1-((5-(3-ethyl-1,2,4-thiadiazol-5-yl)-2-methylphenyl)glycyl)-N-methylindoline-N-sulfonamide]: the IC50 is 0.0001 to 0.019 µM. The value for `CCc1nsc(-c2ccc(C)c(NCC(=O)N3CCc4c(N5CC(C)OC(C)C5)cccc43)c2)n1` (stereo not drawn) [Example 27, 1-(4-(2,6-dimethylmorpholino)indolin-1-yl)-2-((5-(3-ethyl-1,2,4-thiadiazol-5-yl)-2-methylphenyl)amino) ethan-1-one] was 0.0001 to 0.019 µM; that for `Cc1ccc(-c2ccc(C)c(NCC(=O)N3CCc4c(CO)cccc43)c2)o1` [Example 28, 1-(4-(hydroxymethyl)indolin-1-yl)-2-((2-methyl-5-(5-methylfuran-2-yl)phenyl)amino)ethan-1-one] was 0.0001 to 0.019 µM; that for `Cc1nsc(-c2ccc(C)c(NCC(=O)N3CCc4c(C(C)O)cccc43)c2)n1` (stereo not drawn) [Example 29, 1-(4-(1-hydroxyethyl)indolin-1-yl)-2-((2-methyl-5-(3-methyl-1,2,4-thiadiazol-5-yl)phenyl)amino)ethan-1-one] was 0.02 to 0.039 µM. The value for `Cc1nsc(-c2ccc(C)c(NCC(=O)N3CCc4c(OCCC(C)(C)O)cccc43)c2)n1` [Example 30, 1-(4-(3-hydroxy-3-methylbutoxy)indolin-1-yl)-2-((2-methyl-5-(3-methyl-1,2,4-thiadiazol-5-yl)phenyl)amino)ethan-1-one] was 0.0001 to 0.019 µM; that for `Cc1nsc(-c2ccc(C)c(NCC(=O)N3CCc4c(OCCOCCO)cccc43)c2)n1` [Example 31, 1-(4-(2-(2-hydroxyethoxy)-ethoxy)indolin-1-yl)-2-((2-methyl-5-(3-methyl-1,2,4-thiadiazol-5-yl)phenyl)-amino)ethan-1-one] was 0.02 to 0.039 µM; that for `Cc1nsc(-c2ccc(C)c(NCC(=O)N3CCc4c(-c5cccnc5)cccc43)c2)n1` [Example 32, 2-((2-methyl-5-(3-methyl-1,2,4-thiadiazol-5-yl)phenyl)amino)-1-(4-(pyridin-3-yl)indolin-1-yl)ethan-1-one] was 0.0001 to 0.019 µM.

On to `Cc1nsc(-c2ccc(C)c(NCC(=O)N3CCc4c(C(O)C(F)(F)F)cccc43)c2)n1` (stereo not drawn) [Example 33, 2-((2-methyl-5-(3-methyl-1,2,4-thiadiazol-5-yl)phenyl)amino)-1-(4-(2,2,2-trifluoro-1-hydroxyethyl)indolin-1-yl)ethan-1-one], for which the IC50 lay within 0.02 to 0.039 µM. `COc1cccc2c1CCN2C(=O)CNc1cc(-c2nc(C)ns2)ccc1F` [Example 34, 2-((2-fluoro-5-(3-methyl-1,2,4-thiadiazol-5-yl)phenyl)amino)-1-(4-methoxyindolin-1-yl)ethan-1-one] registered a concentration for half-maximal inhibition (IC50) of 0.02 to 0.039 µM.

`CCc1nsc(-c2ccc(C)c(NCC(=O)N3CCc4c3cccc4-n3ccnc3)c2)n1` [Example 35, 1-(4-(1H-imidazol-1-yl)indolin-1-yl)-2-((5-(3-ethyl-1,2,4-thiadiazol-5-yl)-2-methyl-phenyl)amino)ethan-1-one] displayed an IC50 of 0.02 to 0.039 µM.

Broadly, the IC50 is the concentration at which inhibition is half-maximal. Lower therefore signals greater potency.
